Key:
C2C12 cells = experiment: Cell viability assay, C2C12; format: cell-based, mouse; details: 24 hr and 48 hr, same doses
Procedure: Cell viability in cultured cells was determined using Promega's CellTiter96® AQueous One Solution Cell Proliferation Assay kits, according to the Manufacturer's protocol. In brief, equal number of C2C12 (1×10^4 cells/well), AML-12 (1×10^4 cells/well) and IMR-32 (2×10^4 cells/well) were seeded on 96-well clear plates (VWR) and treated with vehicle or compounds for 24, […] and/or 72 hr. Then, cultured cells were incubated with AQueous One solution (100 ul/per well) at 37° C. for 1 hr, and the absorbance of OD490 nm in each sample was determined by the Bio-Tek microplate reader. Cell viability in culture cells were determined by the subtraction of OD490 nm in cultured cells with the OD490 nm in plain culture media (without seeding of cells). Eight samples per each treatment were examined for the above analysis. Data are presented as Mean±sem of eight samples.

Gsk3b = experiment: Western blot, Gsk3b in IMR-32 cells; format: cell-based, human; details: 150 ppb, 24 hr, compared to control cells
Procedure: (§1) IMR-32 and AML12 cells were seeded on 6-well plates, and then treated with vehicle and various compounds for 6 and 24 hr, as described above. After treatments, cells were rinsed with ice-cold PBS, and lysed in the ice-cold RIPA buffer containing complete proteinase and phosphotase inhibitors (Themo-Fisher Scientific, Waltham, Mass.) on ice for 30 min. Cell lysates were collected using a cell scraper and transfer pipette, and then centrifuged at 12000 g for 30 min at 4° C. to remove the DNA pellet and obtain the protein extract. Protein levels in the supernatant of these cell lysates were determined using the Pierce Micro-BCA protein assay kit (Themo Scientific-Piece Biotechnology, Rockford, Ill.) according to the manufacturer's protocol.
(§2) For Western blot analysis, five micrograms of total proteins from vehicle- and compound(s)-treated cells were subjected to SDS-PAGE gel separation, and then transferred to PVDF membranes, as described previously (Reddy, Liu et al. 2008 Science). […] All primary antibodies except G6PC (Santa Cruz), Actb (Li-COR, Lincoln, Nebr.), Elf2bε and pElf2bε (Abcam, Cambridge, Mass.) were purchased from Cell Signaling Inc. Positive signals on the membrane blots were detected using the Amersham's enhanced chemiluminescence Western Blotting Prime Detection reagents (GE healthcare Lifescience, Pittsburgh, Pa.). […]

PSEN = experiment: Western blot, PSEN in IMR-32 cells; format: cell-based, human; details: 150 ppb, 24 hr
Procedure: as §1, §2

beta-secretase BACE = experiment: Western blot, BACE in IMR-32 cells; format: cell-based, human; details: 150 ppb, 24 hr
Procedure: as §1, §2

PEN2 = experiment: Western blot, PEN2 in IMR-32 cells; format: cell-based, human; details: 150 ppb, 24 hr
Procedure: as §1, §2

Structure (SMILES)	cell viability (C2C12 cells)	Gsk3b protein levels (Gsk3b)	PSEN protein level (PSEN)	beta-secretase BACE protein (beta-secretase BACE)	PEN2 protein (PEN2)
Nc1ncnc2c1ncn2[C@@H]1O[C@H](C[Se]CC[C@@H](N)C(=O)O)C(O)C1O (stereo partly drawn) [compound D, 5′-Selenoadenosyl homocysteine]	did not affect cell viability	–	–	–	–
C[Se]C[C@H]1O[C@@H](n2cnc3c(N)ncnc32)C(O)C1O (stereo in doubt) [compound C, 5′-Methylselenoadenosine]	did not affect cell viability	statistically significant decrease of Gsk3b protein levels	significant reduction	but not PEN2 and beta-secretase BACE proteins were attenuated	but not PEN2 and beta-secretase BACE proteins were attenuated

— US10201559B2, “Compositions of selenoorganic compounds and methods of use thereof” (Alltech, Inc., priority 2014, dated 2019)
